Measured values taken from ChEMBL document CHEMBL5365427, “Discovery and Structural Optimization of Covalent ZAP-70 Kinase Inhibitors against Psoriasis” (J Med Chem, 2023).
Calls of active or inactive are those of the source. No cut-off for these calls is given here.

What was measured:
[1] = system: Mus musculus; assay: Anti-inflammatory activity in imiquimod-induced BALB/c mouse psoriasis model assessed as reduction in immune cell infiltration at TOP administration, 2 % applied for 7 days by hematoxylin and eosin staining based assay; format: functional, organism-based; conditions: time 7.0 day
[2] = system: Splenocyte; assay: Immunosuppressive activity in BALB/c mouse Splenocyte assessed as reduction in frequency of CD25 positive CD4 positive T cells at 100 to 400 nM incubated for 48 hrs by flow cytometry analysis; format: functional, cell-based; conditions: dose 100-400 nM
[3] = molecular target: T1, Tyrosine-protein kinase ZAP-70 (Homo sapiens) (UniProt P43403); assay: Inhibition of ZAP-70 (unknown origin) at 1 uM relative to control
T1 sequence (whole entry): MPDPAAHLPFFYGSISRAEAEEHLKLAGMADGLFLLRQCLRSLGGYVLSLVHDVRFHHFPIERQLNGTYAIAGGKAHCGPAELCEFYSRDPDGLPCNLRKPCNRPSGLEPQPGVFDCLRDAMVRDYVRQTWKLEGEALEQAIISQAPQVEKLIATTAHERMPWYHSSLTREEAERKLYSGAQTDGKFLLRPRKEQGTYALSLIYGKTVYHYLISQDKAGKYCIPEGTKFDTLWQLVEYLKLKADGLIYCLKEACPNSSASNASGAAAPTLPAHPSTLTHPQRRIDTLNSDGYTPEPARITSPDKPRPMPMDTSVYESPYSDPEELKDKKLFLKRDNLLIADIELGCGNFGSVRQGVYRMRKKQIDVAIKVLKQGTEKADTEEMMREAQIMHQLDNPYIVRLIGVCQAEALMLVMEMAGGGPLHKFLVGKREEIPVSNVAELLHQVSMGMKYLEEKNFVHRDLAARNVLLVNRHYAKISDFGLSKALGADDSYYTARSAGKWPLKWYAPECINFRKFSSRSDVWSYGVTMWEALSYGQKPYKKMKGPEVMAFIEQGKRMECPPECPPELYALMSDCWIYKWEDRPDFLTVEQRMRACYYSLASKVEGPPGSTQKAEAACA

[4] = system: Splenocyte; assay: Immunosuppressive activity in LPS-induced BALB/c mouse Splenocyte assessed as effect on CD69 expression at 100 to 400 nM incubated for 48 hrs by flow cytometry analysis; format: functional, cell-based; conditions: dose 100-400 nM
[5] = molecular target: T2, Tyrosine-protein kinase SYK (Homo sapiens, UniProt P43405); assay: Inhibition of SYK (unknown origin) using ULight-TK peptide as substrate at 1 uM incubated for 120 mins in presence of ATP by Lance Ultra Kinase assay relative to control
[6] = molecular target: T3, Tyrosine-protein kinase ZAP-70 (Homo sapiens, UniProt P43403); assay: Inhibition of ZAP-70 (unknown origin) using ULight-TK peptide as substrate incubated for 120 mins in presence of ATP by Lance Ultra Kinase assay
T3 sequence (P43403 whole entry): T1 sequence (whole entry)

[7] = system: Splenocyte; assay: Immunosuppressive activity in anti-CD3/CD28 stimulated BALB/c mouse Splenocyte assessed as reduction in IFN-gamma cytokine level incubated for 48 hrs by ELISA assay; format: functional, cell-based
[8] = molecular target: Tyrosine-protein kinase receptor UFO (Homo sapiens) (UniProt P30530); assay: Inhibition of AXL (unknown origin) at 1 uM relative to control
Chain of Tyrosine-protein kinase receptor UFO (Homo sapiens) (P30530 whole entry): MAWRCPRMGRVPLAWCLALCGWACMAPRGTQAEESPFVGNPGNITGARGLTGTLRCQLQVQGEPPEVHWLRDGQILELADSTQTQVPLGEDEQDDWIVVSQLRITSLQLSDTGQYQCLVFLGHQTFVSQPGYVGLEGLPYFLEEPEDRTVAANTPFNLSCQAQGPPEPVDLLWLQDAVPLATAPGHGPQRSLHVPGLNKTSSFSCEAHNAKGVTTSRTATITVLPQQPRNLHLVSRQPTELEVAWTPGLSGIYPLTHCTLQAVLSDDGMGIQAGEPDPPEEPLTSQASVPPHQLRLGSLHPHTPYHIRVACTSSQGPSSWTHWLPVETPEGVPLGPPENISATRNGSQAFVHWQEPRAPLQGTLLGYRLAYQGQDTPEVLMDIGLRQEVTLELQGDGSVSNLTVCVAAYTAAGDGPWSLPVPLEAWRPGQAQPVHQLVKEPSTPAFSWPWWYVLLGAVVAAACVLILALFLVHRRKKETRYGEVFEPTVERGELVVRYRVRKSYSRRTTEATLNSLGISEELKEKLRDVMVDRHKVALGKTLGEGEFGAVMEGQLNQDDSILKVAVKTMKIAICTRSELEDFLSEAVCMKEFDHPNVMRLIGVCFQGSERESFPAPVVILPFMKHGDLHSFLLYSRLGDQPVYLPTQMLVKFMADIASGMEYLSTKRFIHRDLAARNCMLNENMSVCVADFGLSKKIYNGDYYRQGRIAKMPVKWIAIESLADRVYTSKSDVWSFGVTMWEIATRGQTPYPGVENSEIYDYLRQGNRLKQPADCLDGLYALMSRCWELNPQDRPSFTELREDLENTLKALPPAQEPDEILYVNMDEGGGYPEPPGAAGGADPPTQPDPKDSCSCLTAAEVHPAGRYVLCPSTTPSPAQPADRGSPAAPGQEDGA

[9] = system: Splenocyte; assay: Immunosuppressive activity in BALB/c mouse Splenocyte assessed as reduction in frequency of CD69 positive CD4 positive T cells at 400 nM incubated for 48 hrs by flow cytometry analysis (reference value: 21.3%); format: functional; design: scale not given: the % may be the effect or the level left
[10] = system: Mus musculus; assay: Anti-inflammatory activity in imiquimod-induced BALB/c mouse psoriasis model assessed as decrease in clinical sign of psoriasis in skin at TOP administration, 2 % applied for 7 days; format: functional, organism-based; conditions: time 7.0 day
[11] = molecular target: T2, Tyrosine-protein kinase SYK; assay: Inhibition of SYK (unknown origin) using ULight-TK peptide as substrate incubated for 120 mins in presence of ATP by Lance Ultra Kinase assay
[12] = system: Mus musculus; assay: Anti-inflammatory activity in imiquimod-induced BALB/c mouse psoriasis model assessed as decrease in splenomegaly at TOP administration, 2 % applied for 7 days; format: functional, organism-based; conditions: time 7.0 day
[13] = molecular target: Mitogen-activated protein kinase 9 (Homo sapiens) (UniProt P45984); assay: Inhibition of JNK2 (unknown origin) at 1 uM relative to control
Chain of Mitogen-activated protein kinase 9 (Homo sapiens) (P45984 whole entry, looked up): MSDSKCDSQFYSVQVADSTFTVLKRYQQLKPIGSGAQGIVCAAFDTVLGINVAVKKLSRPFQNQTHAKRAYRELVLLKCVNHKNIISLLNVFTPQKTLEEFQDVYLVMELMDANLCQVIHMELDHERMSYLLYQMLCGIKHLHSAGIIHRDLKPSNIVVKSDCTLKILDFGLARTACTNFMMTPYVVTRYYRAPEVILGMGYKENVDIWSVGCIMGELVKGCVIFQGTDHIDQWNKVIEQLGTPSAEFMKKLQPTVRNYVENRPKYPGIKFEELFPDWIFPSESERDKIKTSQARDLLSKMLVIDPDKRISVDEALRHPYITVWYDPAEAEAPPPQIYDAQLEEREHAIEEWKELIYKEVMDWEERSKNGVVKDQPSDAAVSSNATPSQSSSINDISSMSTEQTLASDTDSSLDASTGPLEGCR

[14] = molecular target: Mitogen-activated protein kinase 10 (Homo sapiens) (UniProt P53779); assay: Inhibition of JNK3 (unknown origin) at 1 uM relative to control
Chain of Mitogen-activated protein kinase 10 (Homo sapiens) (P53779 whole entry): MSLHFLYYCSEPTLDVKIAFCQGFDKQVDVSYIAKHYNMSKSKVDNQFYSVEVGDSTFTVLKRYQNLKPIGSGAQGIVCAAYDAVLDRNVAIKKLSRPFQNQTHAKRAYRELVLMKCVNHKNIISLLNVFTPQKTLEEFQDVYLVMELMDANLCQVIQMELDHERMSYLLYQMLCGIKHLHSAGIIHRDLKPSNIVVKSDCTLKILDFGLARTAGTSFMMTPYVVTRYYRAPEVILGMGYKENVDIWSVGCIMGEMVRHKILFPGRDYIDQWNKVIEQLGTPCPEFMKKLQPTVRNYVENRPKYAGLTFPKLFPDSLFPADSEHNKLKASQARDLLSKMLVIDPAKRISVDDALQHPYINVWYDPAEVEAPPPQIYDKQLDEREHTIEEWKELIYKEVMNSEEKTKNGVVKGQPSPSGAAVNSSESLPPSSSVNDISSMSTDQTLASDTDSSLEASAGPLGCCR

[15] = system: Jurkat; assay: Immunosuppressive activity in anti-CD3/CD28 stimulated human Jurkat cells assessed as reduction in LAT phosphorylation level at 100 to 400 nM incubated for 48 hrs by Western blotting analysis; format: functional, cell-based; conditions: dose 100-400 nM
[16] = system: Splenocyte; assay: Immunosuppressive activity in anti-CD3/CD28 stimulated BALB/c mouse Splenocyte assessed as reduction in IL-17A cytokine level incubated for 48 hrs by ELISA assay; format: functional, cell-based
[17] = molecular target: T4, Bone morphogenetic protein receptor type-2 (Homo sapiens) (UniProt Q13873); assay: Inhibition of BMPR2 (unknown origin) at 1 uM relative to control
T4 sequence (whole entry): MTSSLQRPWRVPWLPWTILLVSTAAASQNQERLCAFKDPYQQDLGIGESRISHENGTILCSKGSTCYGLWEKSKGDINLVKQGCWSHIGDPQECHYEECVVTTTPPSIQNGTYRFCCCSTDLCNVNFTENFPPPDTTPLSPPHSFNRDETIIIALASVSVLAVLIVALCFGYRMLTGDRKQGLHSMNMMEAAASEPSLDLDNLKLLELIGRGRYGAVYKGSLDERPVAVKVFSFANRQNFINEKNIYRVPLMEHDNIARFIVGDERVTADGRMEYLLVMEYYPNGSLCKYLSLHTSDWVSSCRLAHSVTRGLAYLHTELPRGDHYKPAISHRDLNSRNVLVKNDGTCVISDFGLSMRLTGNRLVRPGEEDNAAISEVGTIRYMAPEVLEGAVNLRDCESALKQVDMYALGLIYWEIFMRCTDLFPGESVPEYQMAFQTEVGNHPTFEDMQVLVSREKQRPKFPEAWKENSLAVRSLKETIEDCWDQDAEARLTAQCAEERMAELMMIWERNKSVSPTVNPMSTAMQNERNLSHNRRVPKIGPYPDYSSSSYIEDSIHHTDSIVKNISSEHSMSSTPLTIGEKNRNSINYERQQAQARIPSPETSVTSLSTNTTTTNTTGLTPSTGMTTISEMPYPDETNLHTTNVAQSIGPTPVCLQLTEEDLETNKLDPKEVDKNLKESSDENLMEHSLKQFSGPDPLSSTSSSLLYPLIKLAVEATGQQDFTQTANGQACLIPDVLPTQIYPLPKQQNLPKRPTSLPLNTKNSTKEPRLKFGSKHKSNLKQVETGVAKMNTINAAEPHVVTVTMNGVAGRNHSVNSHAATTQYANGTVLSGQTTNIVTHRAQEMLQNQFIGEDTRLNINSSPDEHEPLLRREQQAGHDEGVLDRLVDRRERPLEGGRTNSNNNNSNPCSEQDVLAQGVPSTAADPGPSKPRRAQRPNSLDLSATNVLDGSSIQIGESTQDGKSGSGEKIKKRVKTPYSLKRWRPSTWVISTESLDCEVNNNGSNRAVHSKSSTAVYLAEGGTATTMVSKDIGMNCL

[18] = molecular target: Mitogen-activated protein kinase 8 (Homo sapiens) (UniProt P45983); assay: Inhibition of JNK1 (unknown origin) at 1 uM relative to control
Chain of Mitogen-activated protein kinase 8 (Homo sapiens) (P45983 whole entry): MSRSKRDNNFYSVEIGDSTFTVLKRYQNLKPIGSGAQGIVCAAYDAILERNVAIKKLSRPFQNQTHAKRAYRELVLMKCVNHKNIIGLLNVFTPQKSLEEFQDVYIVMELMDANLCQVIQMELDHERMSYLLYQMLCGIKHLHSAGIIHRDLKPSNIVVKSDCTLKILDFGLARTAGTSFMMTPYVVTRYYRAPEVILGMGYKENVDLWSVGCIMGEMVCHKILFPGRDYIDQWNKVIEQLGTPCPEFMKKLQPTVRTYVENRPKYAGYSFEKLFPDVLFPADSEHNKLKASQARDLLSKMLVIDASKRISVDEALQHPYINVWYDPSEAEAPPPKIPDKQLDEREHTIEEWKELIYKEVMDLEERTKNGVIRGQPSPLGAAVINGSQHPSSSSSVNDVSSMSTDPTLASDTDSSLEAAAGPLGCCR

inhibition [3]: 98.3%
inhibition [5]: 72.5%
IC50 [6]: 14.6 nM
inhibition [8]: > 90%
IC50 [11]: 1160 nM
inhibition [13]: > 90%
inhibition [14]: > 90%
inhibition [17]: > 90%
inhibition [18]: > 90%
SMILES: C=CC(=O)Nc1cc(CNc2nc(Nc3ccc(N4CCOCC4)c(OC)c3)c(C(N)=O)c3nccn23)ccc1Cl
Activity [1]: Active
Activity [2]: Active
Activity [4]: inactive
Activity [7]: Dose-Dependent Effect
Activity [9]: 10.8%
Activity [10]: Active
Activity [12]: Active
Activity [15]: Active
Activity [16]: Dose-Dependent Effect
